# Values of other authors, collected in patent US20200046664A1, “METHOD FOR PREPARATION OF LIQUID ORAL COMPOSITION OF L-THYROXIN” (FTF PHARMA PRIVATE LIMITED, priority 2016, published 2020).
smiles,measurement,setting,value
"N[C@@H](Cc1cc(I)c(Oc2cc(I)c(O)c(I)c2)c(I)c1)C(=O)[O-].[Na+] [Levothyroxine sodium, Sodium (2S)-2-amino-3-[4-(4-hydroxy-3,5-diiodophenoxy)-3,5-diiodophenyl]propanoate]",Solubility in ethanol (96 percent),ethanol (96 percent),slightly soluble
same,Solubility in water,water,very slightly soluble
